Data: patent publication US20240174659A1, “COMPOUNDS AND METHODS FOR YAP/TEAD MODULATION AND INDICATIONS THEREFOR” (Opna Bio SA, priority 2021, published 2024)

System: TEAD-dependent transcription
Experiment: Inhibitor activity against TEAD-dependent transcription in a cell-based reporter assay (MSTO-211H+12XGTIIC luciferase)
Conditions: Homo sapiens; MSTO-211H+12XGTIIC cells, 24 hours incubation, luciferase luminescence normalized to cell viability fluorescence, geometric mean; read-out: MSTO-211H GMean IC50 (uM) Cell Assay Reporter Cell Variant: TEAD
Description: Determine Inhibitor Activity Against TEAD-Dependent Transcription in a Cell-Based Reporter Assay
The human mesothelioma cell line MSTO-211H was stably transfected with a pGL4.21 plasmid containing a synthetic promoter with 12 copies of the GTIIC TEAD response element that drives the expression of a luciferase reporter gene^1 using Lipofectamine transfection reagent (Thermo Fisher). Transfected cells were selected using puromycin and single cell clones expressing this construct (referred to as MSTO-211H+12XGTIIC) were generated by limiting dilution. MSTO-211H cells was characterized by genetic alterations in key components of the Hippo pathway^2, resulting in up-regulation of YAP/TEAD-mediated transcription. […] To evaluate TEAD inhibitors, the MSTO-211H+12XGTIIC cell line was seeded in a 96-well plate in 50 μL of culture media at 1×10^4 cells per well and incubated at 37° C. overnight. Serial dilutions of compounds (in total volume of 50 μL of culture media) were added to the cells and incubated at 37° C. for 24 hours. Each plate included cells treated with DMSO as high controls and cells treated with 20 μM of the reference compound K-975 (a known TEAD inhibitor)^3 as low controls. Cell viability was assayed by the addition of 25 μL of CellTiter-Fluor reagent (Promega) followed by a 30-minute incubation at 37° C. and quantification of the fluorescence signal (Ex400/Em505). Subsequently, luciferase expression was assayed by the addition of 25 μL of ONE-Glo reagent (Promega) followed by a 10-minute incubation at room temperature and quantification of the luminescence signal. The luminescence signal was normalized to the fluorescence signal to correct for any loss in cell viability over the 24-hour compound incubation period. The percentage of inhibition of normalized luminescence signal, indicative of compound-mediated inhibition of TEAD-dependent transcription, at individual compound concentrations relative to high and low controls was calculated. The data were analyzed by using nonlinear regression to generate IC50 values for individual compounds.

SMILES	IC50
C=CC(=O)N1CCc2ccc(OCC3CCC(F)(F)CC3)cc2C1 [P-0080, 1-(7-((4,4-difluorocyclohexyl)methoxy)-3,4-dihydroisoquinolin-2(1H)-yl)prop-2-en-1-one]	0.001 to 0.5 µM
C=CC(=O)N1CCc2ccc(OCc3cc(C)on3)cc2C1 [P-0081, 1-(7-((5-methylisoxazol-3-yl)methoxy)-3,4-dihydroisoquinolin-2(1H)-yl)prop-2-en-1-one]	> 20 µM
C=CC(=O)N1CCc2ccc(OC3CCC(C)(C)CC3)cc2C1 [P-0082, 1-(7-((4,4-dimethylcyclohexyl)oxy)-3,4-dihydroisoquinolin-2(1H)-yl)prop-2-en-1-one]	0.001 to 0.5 µM
C=CC(=O)N1CCc2ccc(OCc3cccc(C(F)(F)F)c3)cc2C1 [P-0083, 1-(7-((3-(trifluoromethyl)benzyl)oxy)-3,4-dihydroisoquinolin-2(1H)-yl)prop-2-en-1-one]	0.001 to 0.5 µM
C=CC(=O)N1CCc2ccc(OC3CCS(=O)(=O)CC3)cc2C1 [P-0084, 1-(7-((1,1-dioxidotetrahydro-2H-thiopyran-4-yl)oxy)-3,4-dihydroisoquinolin-2(1H)-yl)prop-2-en-1-one]	0.001 to 0.5 µM
C=CC(=O)N1CCc2ccc(OC3CCC(F)(F)C3)cc2C1 (stereo not shown) [P-0085, 1-(7-((3,3-difluorocyclopentyl)oxy)-3,4-dihydroisoquinolin-2(1H)-yl)prop-2-en-1-one]	0.001 to 0.5 µM
C=CC(=O)N1CCc2ccc(O[C@@H]3C[C@@H]4[C@H](C3)C4(F)F)cc2C1 [P-0086, 1-(7-(((1R,3s,5S)-6,6-difluorobicyclo[3.1.0]hexan-3-yl)oxy)-3,4-dihydroisoquinolin-2(1H)-yl)prop-2-en-1-one]	0.001 to 0.5 µM
C=CC(=O)N1CCc2ccc(NC3CC4C(C3)C4(F)F)cc2C1 (stereo not shown) [P-0087, 1-(7-((6,6-difluorobicyclo[3.1.0]hexan-3-yl)amino)-3,4-dihydroisoquinolin-2(1H)-yl)prop-2-en-1-one]	0.001 to 0.5 µM
C=CC(=O)N1CCc2ccc(OCc3ccccc3C(F)(F)F)cc2C1 [P-0088, 1-(7-((2-(trifluoromethyl)benzyl)oxy)-3,4-dihydroisoquinolin-2(1H)-yl)prop-2-en-1-one]	0.001 to 0.5 µM
C=CC(=O)N1CCc2ccc(NCc3ccccc3)cc2C1 [P-0089, 1-(7-(benzylamino)-3,4-dihydroisoquinolin-2(1H)-yl)prop-2-en-1-one]	0.001 to 0.5 µM
C=CC(=O)N1CCc2ccc(NCc3cccc(F)c3)cc2C1 [P-0090, 1-(7-((3-fluorobenzyl)amino)-3,4-dihydroisoquinolin-2(1H)-yl)prop-2-en-1-one]	0.001 to 0.5 µM
C=CC(=O)N1CCc2ccc(OCc3cccc(F)c3)cc2C1 [P-0091, 1-(7-((3-fluorobenzyl)oxy)-3,4-dihydroisoquinolin-2(1H)-yl)prop-2-en-1-one]	0.001 to 0.5 µM
C=CC(=O)N1CCc2ccc(Oc3cccc(C#N)c3)cc2C1 [P-0092, 3-((2-acryloyl-1,2,3,4-tetrahydroisoquinolin-7-yl)oxy)benzonitrile]	0.001 to 0.5 µM
C=CC(=O)N1Cc2cc(Oc3ccc(C(F)(F)F)nc3)ccc2C(C)C1 (stereo not shown) [P-0093, 1-(4-methyl-7-((6-(trifluoromethyl)pyridin-3-yl)oxy)-3,4-dihydroisoquinolin-2(1H)-yl)prop-2-en-1-one]	0.001 to 0.5 µM
C=CC(=O)N1Cc2cc(OC3CCC(F)(F)CC3)ccc2C(C)C1 (stereo not shown) [P-0094, 1-(7-((4,4-difluorocyclohexyl)oxy)-4-methyl-3,4-dihydroisoquinolin-2(1H)-yl)prop-2-en-1-one]	0.001 to 0.5 µM
C=CC(=O)N1CCc2c(F)cc(OC3CCC(F)(F)CC3)cc2C1 [P-0095, 1-(7-((4,4-difluorocyclohexyl)oxy)-5-fluoro-3,4-dihydroisoquinolin-2(1H)-yl)prop-2-en-1-one]	0.001 to 0.5 µM

SMILES	IC50
C=CC(=O)N1CCc2ccc(OCc3ccccc3F)cc2C1 [P-0096, 1-(7-((2-fluorobenzyl)oxy)-3,4-dihydroisoquinolin-2(1H)-yl)prop-2-en-1-one]	> 20 µM
C=CC(=O)N1CCc2ccc(NC3CCC4(CC3)CC4)cc2C1 [P-0097, 1-(7-(spiro[2.5]octan-6-ylamino)-3,4-dihydroisoquinolin-2(1H)-yl)prop-2-en-1-one]	0.5 to 20 µM
C=CC(=O)N1CCc2cc(F)c(Oc3ccc(C(F)(F)F)c(F)c3)cc2C1 [P-0098, 1-(6-fluoro-7-(3-fluoro-4-(trifluoromethyl)phenoxy)-3,4-dihydroisoquinolin-2(1H)-yl)prop-2-en-1-one]	0.001 to 0.5 µM
C=CC(=O)N1CCc2cc(C)c(Oc3ccc(C(F)(F)F)c(F)c3)cc2C1 [P-0099, 1-(7-(3-fluoro-4-(trifluoromethyl)phenoxy)-6-methyl-3,4-dihydroisoquinolin-2(1H)-yl)prop-2-en-1-one]	0.001 to 0.5 µM
C=CC(=O)N1CCc2ccc(NCC3CCC(F)(F)CC3)cc2C1 [P-0100, 1-(7-(((4,4-difluorocyclohexyl)methyl)ami-no)-3,4-dihydroisoquinolin-2(1H)-yl)prop-2-en-1-one]	0.001 to 0.5 µM
C=CC(=O)N1CCc2c(F)cc(Oc3ccc(C(F)(F)F)nc3)cc2C1 [P-0101, 1-(5-fluoro-7-((6-(trifluoromethyl)pyridin-3-yl)oxy)-3,4-dihydroisoquinolin-2(1H)-yl)prop-2-en-1-one]	0.001 to 0.5 µM
C=CC(=O)N1CCc2cc(F)c(OC3CCC(F)(F)CC3)cc2C1 [P-0102, 1-(7-((4,4-difluorocyclohexyl)oxy)-6-fluoro-3,4-dihydroisoquinolin-2(1H)-yl)prop-2-en-1-one]	0.001 to 0.5 µM
C=CC(=O)N1CCc2cc(F)c(Oc3ccc(C(F)(F)F)cc3)cc2C1 [P-0103, 1-(6-fluoro-7-(4-(trifluoromethyl)phenoxy)-3,4-dihydroisoquinolin-2(1H)-yl)prop-2-en-1-one]	0.001 to 0.5 µM
C=CC(=O)N1CCc2ccc(Cc3ccc(C(F)(F)F)nc3)cc2C1 [P-0104, 1-(7-((6-(trifluoromethyl)pyridin-3-yl)methyl)-3,4-dihydroisoquinolin-2(1H)-yl)prop-2-en-1-one]	0.001 to 0.5 µM
C=CC(=O)N1CCc2ccc(C(F)c3ccc(C(F)(F)F)nc3)cc2C1 (stereo not shown) [P-0105, 1-(7-(fluoro(6-(trifluoromethyl)pyridin-3-yl)methyl)-3,4-dihydroisoquinolin-2(1H)-yl)prop-2-en-1-one]	0.5 to 20 µM
C=CC(=O)N1CCc2ccc(C(F)(F)c3ccc(C(F)(F)F)nc3)cc2C1 [P-0106, 1-(7-(difluoro(6-(trifluoromethyl)pyridin-3-yl)methyl)-3,4-dihydroisoquinolin-2(1H)-yl)prop-2-en-1-one]	0.001 to 0.5 µM
C=CC(=O)N1CCc2ccc(OCC3CC(F)(F)C3)cc2C1 [P-0107, 1-(7-((3,3-difluorocyclobutyl)methoxy)-3,4-dihydroisoquinolin-2(1H)-yl)prop-2-en-1-one]	0.001 to 0.5 µM
C=CC(=O)N1CCc2ccc(OCC34CC5CC(CC(C5)C3)C4)cc2C1 [P-0108, 1-(7-(((3r,5r,7r)-adamantan-1-yl)methoxy)-3,4-dihydroisoquinolin-2(1H)-yl)prop-2-en-1-one]	0.001 to 0.5 µM
C=CC(=O)N1CCc2ccc(Oc3ccc(C4(C)CC4)cc3)cc2C1 [P-0109, 1-(7-(4-(1-methylcyclopropyl)phenoxy)-3,4-dihydroisoquinolin-2(1H)-yl)prop-2-en-1-one]	0.001 to 0.5 µM
C=CC(=O)N1CCc2ccc(OCC34CCC(CC3)C4)cc2C1 [P-0110, 1-(7-(bicyclo[2.2.1]heptan-1-ylmethoxy)-3,4-dihydroisoquinolin-2(1H)-yl)prop-2-en-1-one]	0.001 to 0.5 µM
